Measured values published in patent US20070027218A1, “Pharmaceutical compositions comprising higher primary alcohols and ezetimibe and process of preparation thereof” (PANACEA BIOTEC LTD., priority 2004, published 2007).

Test system: Casein-Starch-Induced Hypercholesterolemia in Rabbits
Assay: Casein-starch-induced hypercholesterolemia in rabbits (serum lipid profile)
Type: in vivo
Details: for LDL-C level / serum total cholesterol level: mean ± S.E.M., in mg/dL (unit assumed)
Method: The observed unexpected synergistic lipid lowering effect of combination of Extract-A as described herein and ezetimibe is evidenced by the test conducted in rabbits. Rabbits of either sex were procured from Central Animal House facility; Panacea Biotec Ltd., India. Animals weighing […] at the time of testing were used throughout. All animals were dosed sequentially by the oral route with Extract-A and/or ezetimibe suspended in 0.5% of carboxymethyl cellulose (CMC). A dosing volume of 2 ml/kg was used for each sequential suspension.
The fasting serum lipid profile (TC, TGs, LDL-C, HDL-C) was estimated before initiation of the experiment. […] Hypercholesterolemia was induced by feeding rabbits with wheat casein-starch diet (g/kg) containing wheat flour 333, cellulose 300, casein 270, water 20, maize oil 10, and mineral mixture (Kroon et al., 1982) for 8 weeks. Feed consumption was restricted to 100 g/day per animal. The cholesterol level was estimated every 15 days. After 60 days animals with total cholesterol level>150 mg/dl were randomized to treatment (n=6/group). Thereafter, various doses of Extract-A and/or ezetimibe were administered for another 60 days during which animals were fed with casein-starch diet. Blood samples were collected from fasted rabbits and analyzed for any alteration in serum lipid profile after 60 days of test compound(s) administration.
All the data are expressed as mean±S.E.M. (Standard Error of Mean). Student t-test was used to compare the lipid parameters between animals fed with standard and hypercholesterolemic diet. The difference between various drug treated groups was analyzed by ANOVA followed by Dunnett's test. A value of P<0.05 was considered as statistically significant.

[1] = Extract-A 100 and 200 mg/kg p.o., ezetimibe 5 and 10 mg/kg p.o., alone or in combination, vs hypercholesterolemic control rabbits
[2] = ezetimibe 5 mg/kg p.o., day 0 (before treatment)
[3] = ezetimibe 5 mg/kg p.o., day 15 (before treatment)
[4] = ezetimibe 5 mg/kg p.o., day 30 (before treatment)
[5] = ezetimibe 5 mg/kg p.o., day 60 (start of treatment)
[6] = ezetimibe 5 mg/kg p.o., day 75 (treatment from day 60)
[7] = ezetimibe 5 mg/kg p.o., day 90 (treatment from day 60)
[8] = ezetimibe 5 mg/kg p.o., day 105 (treatment from day 60)
[9] = ezetimibe 5 mg/kg p.o., day 120 (treatment from day 60)
[10] = ezetimibe 10 mg/kg p.o., day 0 (before treatment)
[11] = ezetimibe 10 mg/kg p.o., day 15 (before treatment)
[12] = ezetimibe 10 mg/kg p.o., day 30 (before treatment)
[13] = ezetimibe 10 mg/kg p.o., day 60 (start of treatment)
[14] = ezetimibe 10 mg/kg p.o., day 75 (treatment from day 60)
[15] = ezetimibe 10 mg/kg p.o., day 90 (treatment from day 60)
[16] = ezetimibe 10 mg/kg p.o., day 105 (treatment from day 60)
[17] = ezetimibe 10 mg/kg p.o., day 120 (treatment from day 60)

## O=C1[C@H](CC[C@H](O)c2ccc(F)cc2)[C@@H](c2ccc(O)cc2)N1c1ccc(F)cc1 [Ez, ezetimibe]
[1]
  LDL-C levels (result in words): reversed
  TC levels (result in words): reversed
[2]
  LDL-C level: 22.40 ± 8.81
  serum total cholesterol level: 52.50 ± 3.59
[3]
  LDL-C level: 76.13 ± 3.11
  serum total cholesterol level: 103.50 ± 2.23
[4]
  LDL-C level: 131.53 ± 6.89
  serum total cholesterol level: 169.83 ± 6.16
[5]
  LDL-C level: 174.3 ± 8.02
  serum total cholesterol level: 219.83 ± 7.5
[6]
  LDL-C level: 194.07 ± 4.29
  serum total cholesterol level: 236.50 ± 3.47
[7]
  LDL-C level: 179.47 ± 3.74
  serum total cholesterol level: 222.83 ± 2.77
[8]
  LDL-C level: 156.47 ± 12.92
  serum total cholesterol level: 201.00 ± 12.6
[9]
  LDL-C level: 129.17 ± 9.02
  serum total cholesterol level: 181.50 ± 8.55
[10]
  LDL-C level: 23.70 ± 7.98
  serum total cholesterol level: 46.50 ± 2.2
[11]
  LDL-C level: 72.70 ± 3.92
  serum total cholesterol level: 106.83 ± 3.38
[12]
  LDL-C level: 125.07 ± 10.94
  serum total cholesterol level: 162.50 ± 11.54
[13]
  LDL-C level: 197.03 ± 13.55
  serum total cholesterol level: 234.50 ± 14.24
[14]
  LDL-C level: 179.83 ± 9.83
  serum total cholesterol level: 220.33 ± 8.73
[15]
  LDL-C level: 152.80 ± 6.17
  serum total cholesterol level: 197.66 ± 5.42
[16]
  LDL-C level: 126.60 ± 6.85
  serum total cholesterol level: 172.16 ± 6.58
[17]
  LDL-C level: 124.63 ± 6.55
  serum total cholesterol level: 171.50 ± 4.7
